Assay results: patent publication US4970301A, “2-(piperazinyl)-2-oxoethylene-substituted flavonoid compounds” (Adir et Cie, priority 1987, dated 1990)

Legend:
[1] = system: polymorphonuclear leukocytes; experiment: Oxygen-containing free radical production by polymorphonuclear leukocytes (chemiluminescence); type: cell-based; settings: Leukocyte; rat polymorphonuclear leukocytes, Zymosan, Luminol; read-out: IC50, inhibition of the chemiluminescence reaction (free radical production)
From the text: Evaluation of the Pharmacodynamic Activity with Respect to Oxygen-Containing Free Radicals Produced by Polymorphonuclear Leukocytes The possible pharmacodynamic activity of the compounds of the invention with respect to the production of free radicals by polymorphonuclear leukocytes was investigated in vitro. The cellular model used was rat polymorphonuclear leukocytes. This model is capable of producing free radicals in a manner that can be monitored. The production of free radicals was quantified by measurement of the chemiluminescence, which is proportional to their quantity. Quantities of 2×10^6 polymorphonuclear leukocyte cells, isolated from heparinized rat blood, are mixed with solutions of increasing concentrations of the compounds of the invention (2×10^-4 M to 2×10^-8 M). Appropriate amounts of Hanks' solution, Zymosan® (Sigma 24250) and Luminol® (Merck 82007) are then added successively. The solutions are kept shielded from the light, and transferred rapidly to a liquid scintillation counter. In the "blank" sample, the polymorphonuclear leukocytes are replaced by an equivalent volume of Hanks' solution, and in the "control" sample, the solution of "test compounds" is replaced by a Hanks' solution. The same study was carried out with a reference product: diosmine. The percentage inhibition of free radical production was calculated by the following formula: [formula] Cl control: Maximum chemiluminescence of "control" sample Cl compounds: Maximum chemiluminescence of "test compounds" sample Cl blank: Maximum chemiluminescence of "blank" sample […]

[2] = target: phosphodiesterase; experiment: Inhibition of the degradation of cyclic AMP by phosphodiesterase (spectrophotometry); type: biochemical; settings: rat brain enzyme extract, 25° C., 265 nm
Description: Inhibition of the Degredation Reaction of Cyclic AMP by Phosohodiesterase
The enzyme extract necessary for this study is prepared from rat brain.
After decapitation, the brain is removed, weighed and frozen for half an hour at -70° C. The preparation, maintained in ice, is then diluted and homogenized in 50% glycerol containing 50 mmol tris(hydroxymethyl)aminomethane and 50 mmol magnesium sulfate, in the proportion of 5 ml per gram of brain. The preparation is then centrifuged. The supernatent is distributed in aliquots and stored at 4° C.
In the study, the enzyme extract is incubated :n the presence of cyclic AMP (Boehringer® Ref. 102300), alkaline phosphatase (Boehringer® Ref 108138), adenosine deaminase (Boehringer® Ref. 102091) and increasing amounts of the compounds of the invention. The kinetics of the degredation of cyclic AMP is followed by spectrophotometry at 25° C. A mixture devoid of alkaline phosphatase and adenosine deaminase is used as blank. The measurement of the optical density is carried out at 265 nm. The concentration of the compounds of the invention leading to a 50% inhibition of the enzymatic reaction (IC50) is calculated. Two reference substances, diosmine and theoprylline, are studied according to the same methodology.

[3] = Solubility in water; type: physicochemical; settings: addition salt
[4] = system: Croton Oil-Induced Edema of the Mouse's Ear; experiment: Croton oil-induced edema of the mouse's ear; type: in vivo, CD1 (Charles River) male mice; settings: single dose, sacrificed six hours after irritation
Description: Croton Oil-Induced Edema of the Mouse's Ear This test consists in inflaming the mouse's ears with an irritant solution based on croton oil, and in testing the preventive effect of the test compounds administered per os. The tests were carried out on batches of at least 8 CD1 (Charles River) male mice of average weight 18-20 g. The compounds of the invention were administered by gavage with a tube, in a single dose, on the basis of 0.1 ml of liquid per 10 g of mouse. The mouse was deprived of food, but not of drink, 2 hours before the gavage and until after the irritation. Thirty minutes after the gavage, each mouse was lightly anesthetized with ether. 10 μl of the irritant solution were then deposited by means of an Eppendorf pipette on the cutaneous surface of the pinna of the right ear; the left ear, which was not subjected to any treatment, acted as control. The animal was then replaced in the cage and sacrificed six hours later. The ears were sectioned along the cartilagineous edge and weighed immediately. To assess the activity of the product, the mean increase in weight of the ears of the treated batches (m) is compared by Student's test with that of the untreated control batch (mc).

IC50 [2] | solubility [3] | Structure (SMILES) | further results
100 µM | – | COc1ccc(-c2cc(=O)c3c(O)cc(O[C@@H]4O[C@H](CO[C@@H]5O[C@@H](C)[C@H](O)[C@@H](O)[C@H]5O)[C@@H](O)[C@H](O)[C@H]4O)cc3o2)cc1O [DIOSMINE, diosmine, reference compound] | IC50 [1]: 40 µM
– | 158 mg/mL | CCOC(=O)COc1cc(-c2cc(=O)c3c(O)cc(OCC(=O)N4CCN(Cc5ccc(OC)c(OC)c5OC)CC4)cc3o2)ccc1OC [Example 1 (monophosphate), 7-[2-{4-[(2,3,4-trimethoxyphenyl)methyl]-1-piperazinyl}-2-oxoethoxy-5-hydroxy-4'-methoxy-3'-(2-ethoxy-2-oxoethoxy)flavone monophosphate] | –
– | 163 mg/mL | CCOC(=O)COc1cc(OCC(=O)N2CCN(Cc3ccc(OC)c(OC)c3OC)CC2)c2c(=O)cc(-c3ccc(OC)c(OCC(=O)OCC)c3)oc2c1.Cl [Example 2 (hydrochloride), 5-[2-{4-[(2,3,4-Trimethoxyphenyl)methyl]-1-piperazinyl}-2-oxoethoxy]-7,3'-bis(2-ethoxy-2-oxoethoxy)-4'-methoxyflavone hydrochloride] | I (percentage inhibition of ear edema) ([4]; 166 mg.kg^-1 per os, p < 0.05): -34%
20 µM | – | CCOC(=O)COc1cc(OCC(=O)N2CCN(Cc3ccc(OC)c(OC)c3OC)CC2)c2c(=O)cc(-c3ccc(OC)c(OCC(=O)OCC)c3)oc2c1 [Example 2, 5-[2-{4-[(2,3,4-Trimethoxyphenyl)methyl]-1-piperazinyl}-2-oxoethoxy-]-7,3'-bis(2-ethoxy-2-oxoethoxy)-4'-methoxyflavone] | IC50 [1]: 4 µM
– | 200 mg/mL | COc1ccc(-c2cc(=O)c3c(O)cc(O[C@@H]4O[C@H](CO[C@@H]5O[C@@H](C)[C@H](O)[C@@H](O)[C@H]5O)[C@@H](O)[C@H](O)[C@H]4O)cc3o2)cc1OCC(=O)N1CCN(Cc2ccc(OC)c(OC)c2OC)CC1 [Example 3 (hemitartrate), 3'-[2-{4-[(2,3,4-Trimethoxyphenyl)methyl]-1-piperazinyl}-2-oxoethoxy]-4'-methoxy-5-hydroxyflavone 7-chamnoglucoside hemitartrate] | I (percentage inhibition of ear edema) ([4]; 200 mg.kg^-1 per os, p < 0.01): -26%
25 µM | – | COc1ccc(-c2cc(=O)c3c(O)cc(O[C@@H]4O[C@H](CO[C@@H]5O[C@@H](C)[C@H](O)[C@@H](O)[C@H]5O)[C@@H](O)[C@H](O)[C@H]4O)cc3o2)cc1OCC(=O)N1CCN(Cc2ccc(OC)c(OC)c2OC)CC1 [Example 3, 3'-[2-{4-[(2,3,4-Trimethoxyphenyl)methyl]-1-piperazinyl}-2-oxoethoxy]-4'-methoxy-5-hydroxyflavone 7-chamnoglucoside] | –
– | 43 mg/mL | COc1ccc(-c2cc(=O)c3c(O)cc(O[C@@H]4O[C@H](CO)[C@@H](O)[C@H](O)[C@H]4O)cc3o2)cc1OCC(=O)N1CCN(Cc2ccc(OC)c(OC)c2OC)CC1 [Example 4 (monophosphate), 3'-[2-{4-[(2,3,4-Trimethoxyphenyl)methyl]-1-piperazinyl}-2-oxoethoxy]-4'-methoxy-5-hydroxyflavone 7β-glucoside monophosphate] | I (percentage inhibition of ear edema) ([4]; 173 mg.kg^-1 per os, p < 0.05): -28%
– | 35 mg/mL | COc1ccc(-c2cc(=O)c3c(O)cc(O)cc3o2)cc1OCC(=O)N1CCN(Cc2ccc(OC)c(OC)c2OC)CC1 [Example 5 (methanesulfonate), 3'-[2-{4-[(2,3,4-trimethoxyphenyl)methyl]-1-piperazinyl}-2-oxoethoxy]-4'-methoxy-5,7-dihydroxyflavone] | –
– | 39.5 mg/mL | CCOC(=O)COc1cc(O)c2c(=O)cc(-c3ccc(OC)c(OCC(=O)N4CCN(Cc5ccc(OC)c(OC)c5OC)CC4)c3)oc2c1 [Example 6 (monophosphate), 3'[2-{4-[(2,3,4-Trimethoxyphenyl)methyl]-1-piperazinyl}-2-oxoethoxy]-4'-methoxy-5-hydroxy-7-(2-ethoxy-2-oxoethyoxy)flavone phosphate] | –
– | – | CCOC(=O)COc1cc(O)c2c(=O)cc(-c3ccc(OC)c(OCC(=O)N4CCN(Cc5ccc(OC)c(OC)c5OC)CC4)c3)oc2c1 [Example 6, 3'-[2-{4-[(2,3,4-Trimethoxyphenyl)methyl]-1-piperazinyl}-2-oxoethoxy]-4'-methoxy-5-hydroxy-7-(2-ethoxy-2-oxoethoxy)flavone] | IC50 [1]: 10 µM
– | 221 mg/mL | COc1ccc(-c2cc(=O)c3c(O)cc(OCC(=O)N4CCN(Cc5ccc(OC)c(OC)c5OC)CC4)cc3o2)cc1OCC(=O)N1CCN(Cc2ccc(OC)c(OC)c2OC)CC1 [Example 7 (biphosphate), 7,3'-Bis[2-{4-[(2,3,4-trimethoxyphenyl)methyl]-1-piperazinyl}-2-oxoethoxy]-5-hydroxy-4'-methoxyflavone biphosphate] | –
10 µM | – | COc1ccc(-c2cc(=O)c3c(O)cc(OCC(=O)N4CCN(Cc5ccc(OC)c(OC)c5OC)CC4)cc3o2)cc1OCC(=O)N1CCN(Cc2ccc(OC)c(OC)c2OC)CC1 [Example 7, 7,3'-Bis[2-{4-[(2,3,4-trimethoxyphenyl)methyl]-1-piperazinyl}-2-oxoethoxy]-5-hydroxy-4'-methoxyflavone] | –
– | 1.4 mg/mL | COc1ccc(C2CC(=O)c3c(O)cc(OCC(=O)N4CCN(Cc5ccc(OC)c(OC)c5OC)CC4)cc3O2)cc1O.CS(=O)(=O)O (stereo not drawn) [Example 8 (methanesulfonate), 7-[2-{4-[(2,3,4-Trimethoxyphenyl)methyl]-1-piperazinyl}-2-oxoethoxy]-5,3'-dihydroxy-4'-methoxyflavanone methanesulfonate] | –
57 µM | – | COc1ccc(C2CC(=O)c3c(O)cc(OCC(=O)N4CCN(Cc5ccc(OC)c(OC)c5OC)CC4)cc3O2)cc1O (stereo not drawn) [Example 8, 7-[2-{4-[(2,3,4-Trimethoxyphenyl)methyl]-1-piperazinyl}-2-oxoethoxy]-5,3'-dihydroxy-4'-methoxyflavanone] | IC50 [1]: 15 µM

Structure (SMILES) | IC50 [2] | solubility [3] | further results
Cn1c(=O)c2[nH]cnc2n(C)c1=O [THEOPHYLLINE, theophylline, reference compound] | 1000 µM | – | –
